Assay results: US5527781A, “4-O-(aminoglycosyl)- or 4,6-di-O-(aminoglycosyl)-2,5-dideoxy-5,5-difluorostreptamine derivatives” (Zaidan Hojin Biseibutsu Kagaku Kenkyu Kai, priority 1990, dated 1996)
Values after ≈ are worked out from the molar mass of the structure shown. Read-outs that look alike come from different tables or passages of the source.

Legend:
[1] = test system: Staphylococcus aureus Ap01; experiment: MIC, standard serial dilution method; assay type: cell-based; conditions: resistance mechanism ANT(4'), Mueller-Hinton agar, 37° C
[2] = test system: Corynebacterium bovis 1810; experiment: MIC, standard serial dilution method; assay type: cell-based; conditions: Mueller-Hinton agar, 37° C
Escherichia coli K-12 = experiment: MIC, standard serial dilution method; assay type: cell-based; conditions: K12
[3] = test system: Escherichia coli K-12 ML 1629; experiment: microbe, parasite or virus in culture; assay type: cell-based; conditions: K12ML1629; Escherichia coli K-12 ML 1629; resistance mechanism APH(3')-I; Mueller-Hinton agar, 37° C; read-out: MIC
Mycobacterium 607 = experiment: MIC, standard serial dilution method; assay type: cell-based; conditions: Mueller-Hinton agar, 37° C
[4] = test system: Klebsiella pneumoniae 22#3038; experiment: MIC, standard serial dilution method; assay type: cell-based; conditions: resistance mechanism APH(3')-II, ANT(2"), Mueller-Hinton agar, 37° C
in vivo = conditions: mouse, iv
Text: Further, in order to estimate acute toxicity of the compound of the general formula (I) according to this invention, some examples of the compounds of this invention were independently dissolved in water to prepare aqueous solutions (as adjusted to pH 7 by addition of hydrochloric acid). […] The tested compounds of this invention are expressed by the same abbreviations as in Table 1. […] The comparative compounds as tested are also expressed by the same abbreviations as in Table 1.

Bacillus subtilis PCI219 = experiment: MIC, standard serial dilution method; assay type: cell-based; conditions: Mueller-Hinton agar, 37° C
Proteus rettgeri GN 311 = experiment: MIC, standard serial dilution method; assay type: cell-based; conditions: Providencia rettgeri, GN311; Proteus rettgeri GN 311; Mueller-Hinton agar, 37° C; read-out: MIC
[5] = test system: Pseudomonas aeruginosa GN 315; experiment: MIC, standard serial dilution method; assay type: cell-based; conditions: GN315
[6] = test system: Staphylococcus aureus 209P; experiment: MIC, standard serial dilution method; assay type: cell-based; conditions: Mueller-Hinton agar, 37° C
Providencia sp. Pv 16 = experiment: MIC, standard serial dilution method; assay type: cell-based; conditions: SP.PV16, resistance mechanism AAC(2'), Mueller-Hinton agar, 37° C
[7] = test system: Pseudomonas aeruginosa A3; experiment: MIC, standard serial dilution method; assay type: cell-based; conditions: Mueller-Hinton agar, 37° C
Escherichia coli K-12 R5 = experiment: microbe, parasite or virus in culture; assay type: cell-based; conditions: K12R5; Escherichia coli K-12 R5; resistance mechanism AAC(6'); Mueller-Hinton agar, 37° C
[8] = test system: Escherichia coli K-12 LA 290 R55; experiment: microbe, parasite or virus in culture; assay type: cell-based; conditions: K12LA290R55; Escherichia coli K-12 LA 290 R55; resistance mechanism ANT(2"); Mueller-Hinton agar, 37° C
Serratia marcescens = experiment: MIC, standard serial dilution method; assay type: cell-based; conditions: Mueller-Hinton agar, 37° C
Escherichia coli JR225 = experiment: microbe, parasite or virus in culture; assay type: cell-based; conditions: resistance mechanism AAC(3), Mueller-Hinton agar, 37° C
[9] = test system: Escherichia coli JR66/W677; experiment: microbe, parasite or virus in culture; assay type: cell-based; conditions: resistance mechanism APH(3')-II, ANT(2"), Mueller-Hinton agar, 37° C
[10] = Escherichia coli K-12, Mueller-Hinton agar, 37° C, read-out: MIC
[11] = Pseudomonas aeruginosa GN 315, resistance mechanism AAC(6'), Mueller-Hinton agar, 37° C, read-out: MIC

## NC[C@@H]1CC[C@@H](N)[C@@H](O[C@H]2[C@H](F)[C@@H](O[C@H]3O[C@H](CO)[C@@H](O)[C@H](N)[C@H]3O)[C@H](N)C[C@@H]2N)O1 [Compound 5F-DKB, 5,3',4'-trideoxy-5-fluorokanamycin B, reference compound]
[1]
  MIC: 3.12 µg/mL (≈ 6.88 µM)
[2]
  MIC: 6.25 µg/mL (≈ 13.8 µM)
Escherichia coli K-12; [10]
  MIC: 3.12 µg/mL (≈ 6.88 µM)
[3]
  MIC: 3.12 µg/mL (≈ 6.88 µM)
Mycobacterium 607
  MIC: 6.25 µg/mL (≈ 13.8 µM)
[4]
  MIC: 6.25 µg/mL (≈ 13.8 µM)
In vivo; pH 7
  LD50: ~135 mg/kg

## NC[C@@H]1CC[C@@H](N)[C@@H](O[C@H]2[C@H](O)[C@@H](O[C@H]3O[C@H](CO)[C@@H](O)[C@H](N)[C@H]3O)[C@H](N)C[C@@H]2N)O1 [DKB, 3',4'-dideoxy-kanamycin B, reference compound]
Bacillus subtilis PCI219
  MIC: < 0.2 µg/mL
Escherichia coli K-12; [10]
  MIC: 0.39 µg/mL (≈ 0.864 µM)
[4]
  MIC: 50 µg/mL (≈ 111 µM)
Proteus rettgeri GN 311
  MIC: < 0.2 µg/mL
[5]; Pseudomonas aeruginosa
  MIC: 100 µg/mL (≈ 221 µM)

## NC[C@H]1O[C@H](O[C@H]2[C@H](O)[C@@H](O[C@H]3O[C@H](CO)[C@@H](O)[C@H](N)[C@H]3O)[C@H](N)C[C@@H]2N)[C@H](N)[C@@H](O)[C@@H]1O [KMB, kanamycin B, reference compound]
[6]
  MIC: 0.39 µg/mL (≈ 0.807 µM)
Bacillus subtilis PCI219
  MIC: < 0.2 µg/mL
Escherichia coli K-12; [10]
  MIC: 0.39 µg/mL (≈ 0.807 µM)
[3]
  MIC: > 100 µg/mL
[4]
  MIC: > 100 µg/mL
Proteus rettgeri GN 311
  MIC: 0.2 µg/mL (≈ 0.414 µM)
Providencia sp. Pv 16
  MIC: 12.5 µg/mL (≈ 25.9 µM)
[7]
  MIC: 1.56 µg/mL (≈ 3.23 µM)

## NC[C@H]1O[C@H](O[C@H]2[C@H](F)[C@@H](O[C@H]3O[C@H](CO)[C@@H](O)[C@H](N)[C@H]3O)[C@H](N)C[C@@H]2N)[C@H](N)[C@@H](O)[C@@H]1O [5-deoxy-5-fluorokanamycin B, reference compound]
In vivo
  LD50: ~135 mg/kg

## NCC[C@H](O)C(=O)N[C@@H]1C[C@H](N)[C@@H](O[C@H]2O[C@H](CN)[C@@H](O)[C@H](O)[C@H]2O)[C@H](O)[C@H]1O[C@H]1O[C@H](CO)[C@@H](O)[C@H](N)[C@H]1O [Amikacin, amikacin, reference compound]
[1]
  MIC: > 100 µg/mL
Bacillus subtilis PCI219
  MIC: 0.39 µg/mL (≈ 0.666 µM)
[2]
  MIC: 1.56 µg/mL (≈ 2.66 µM)
Escherichia coli K-12 R5
  MIC: 100 µg/mL (≈ 171 µM)
[3]
  MIC: 1.56 µg/mL (≈ 2.66 µM)
[8]
  MIC: 1.56 µg/mL (≈ 2.66 µM)
[4]
  MIC: 3.12 µg/mL (≈ 5.33 µM)
Proteus rettgeri GN 311
  MIC: 1.56 µg/mL (≈ 2.66 µM)
Serratia marcescens
  MIC: 3.12 µg/mL (≈ 5.33 µM)
Providencia sp. Pv 16
  MIC: 1.56 µg/mL (≈ 2.66 µM)
[5]; [11]
  MIC: 50 µg/mL (≈ 85.4 µM)
In vivo; pH 7
  LD50: > 300 mg/kg

## NC[C@H]1O[C@H](O[C@@H]2[C@@H](N)C[C@@H](N)[C@H](O[C@H]3O[C@H](CO)[C@@H](O)[C@H](N)[C@H]3O)C2(F)F)[C@H](O)[C@@H](O)[C@@H]1O [Compound 5FF-KMA, 5-deoxy-5,5-difluorokanamycin A]
[6]
  MIC: 3.12 µg/mL (≈ 6.18 µM)
[1]
  MIC: 50 µg/mL (≈ 99.1 µM)
Bacillus subtilis PCI219
  MIC: 0.78 µg/mL (≈ 1.55 µM)
[2]
  MIC: 12.5 µg/mL (≈ 24.8 µM)
Escherichia coli K-12; Escherichia coli
  MIC: 0.78 µg/mL (≈ 1.55 µM)
Escherichia coli K-12 R5
  MIC: > 100 µg/mL
[3]
  MIC: > 100 µg/mL
[8]
  MIC: 12.5 µg/mL (≈ 24.8 µM)
Escherichia coli JR225
  MIC: 1.56 µg/mL (≈ 3.09 µM)
Mycobacterium 607
  MIC: 3.12 µg/mL (≈ 6.18 µM)
Proteus rettgeri GN 311
  MIC: 1.56 µg/mL (≈ 3.09 µM)
Serratia marcescens
  MIC: 12.5 µg/mL (≈ 24.8 µM)
Providencia sp. Pv 16
  MIC: 12.5 µg/mL (≈ 24.8 µM)
[7]
  MIC: 6.25 µg/mL (≈ 12.4 µM)
[5]; [11]
  MIC: > 100 µg/mL
In vivo; pH 7
  LD50: > 300 mg/kg

## NCC[C@H](O)C(=O)N[C@@H]1C[C@H](N)[C@@H](O[C@H]2O[C@H](CN)[C@@H](O)C[C@H]2N)[C@H](F)[C@H]1O[C@H]1O[C@H](CO)[C@@H](O)[C@H](N)[C@H]1O [Compound 5F-TOB-AHB, 1-N-[4-amino-2-(S)-hydroxybutyryl]-5,3'-dideoxy-5-fluorokanamycinB, reference compound]
[1]
  MIC: 3.12 µg/mL (≈ 5.47 µM)
Escherichia coli K-12; [10]
  MIC: < 0.2 µg/mL
[3]
  MIC: 0.39 µg/mL (≈ 0.683 µM)
[8]
  MIC: 0.39 µg/mL (≈ 0.683 µM)
Escherichia coli JR225
  MIC: < 0.2 µg/mL
Mycobacterium 607
  MIC: 0.39 µg/mL (≈ 0.683 µM)
[4]
  MIC: 0.78 µg/mL (≈ 1.37 µM)
Serratia marcescens
  MIC: 3.12 µg/mL (≈ 5.47 µM)
Providencia sp. Pv 16
  MIC: 0.39 µg/mL (≈ 0.683 µM)
[7]
  MIC: < 0.2 µg/mL
[5]; [11]
  MIC: 1.56 µg/mL (≈ 2.73 µM)

## CN[C@@H]1[C@@H](O)[C@@H](O[C@H]2[C@H](NC(=O)[C@@H](O)CCN)C[C@H](N)[C@@H](O[C@H]3O[C@H]([C@@H](C)N)CC[C@H]3N)C2(F)F)OC[C@]1(C)O [5FF-Genta-C2-AHB, 1-N-[(S)-4-amino-2-hydroxybutyryl]-5-deoxy-5,5-difluorogentamicin C2]
[6]
  MIC: 0.78 µg/mL (≈ 1.33 µM)
[1]
  MIC: 12.5 µg/mL (≈ 21.4 µM)
Bacillus subtilis PCI219
  MIC: 0.2 µg/mL (≈ 0.342 µM)
[2]
  MIC: 0.2 µg/mL (≈ 0.342 µM)
Escherichia coli K-12; [10]
  MIC: < 0.2 µg/mL
Escherichia coli K-12 R5
  MIC: 3.12 µg/mL (≈ 5.34 µM)
[3]
  MIC: 0.39 µg/mL (≈ 0.667 µM)
[8]
  MIC: 0.2 µg/mL (≈ 0.342 µM)
Escherichia coli JR225
  MIC: < 0.2 µg/mL
[9]
  MIC: 0.78 µg/mL (≈ 1.33 µM)
Mycobacterium 607
  MIC: 3.12 µg/mL (≈ 5.34 µM)
[4]
  MIC: 1.56 µg/mL (≈ 2.67 µM)
Proteus rettgeri GN 311
  MIC: 0.78 µg/mL (≈ 1.33 µM)
Serratia marcescens
  MIC: 3.12 µg/mL (≈ 5.34 µM)
Providencia sp. Pv 16
  MIC: 6.25 µg/mL (≈ 10.7 µM)
[7]
  MIC: 3.12 µg/mL (≈ 5.34 µM)
[5]; [11]
  MIC: 100 µg/mL (≈ 171 µM)
